In the assay the target is HIV-1 protease (Human immunodeficiency virus type 1 group M subtype B, UniProt P04585). Kind of assay: biochemical. Conditions: for IC50: HIV-1 Protease IC50; for inhibition at 1 µM: read-out: HIV-1 Protease % Inhib, dose 1.000 uM; for inhibition at 10 µM: read-out: HIV-1 Protease % Inhib, dose 10.000 uM; for inhibition at 100 µM: read-out: HIV-1 Protease % Inhib, dose 100.000 uM. As to the method: The HIV protease screening assay is based on fluorescently labeled substrate which can be resolved from nonlabeled cleavage product using special beads coated with streptavidin. The substrate is biotinylated at the amino terminal arginine and fluorescently labeled with fluorescein isothiocynate (FITC) at the carboxyl terminal lysine. This assay has been employed to detect novel, nonpeptidic inhibitors of HIV-1 protease. Substrate (20 μl of 0.2 μM), sample (10 μl of desired concentration), and enzyme (10 μl of 0.1 μM) are added to a 96 well pandex plate. The assay is run in 0.1M sodium acetate buffer at pH 5.5 in the presence of 1.0M sodium chloride and 0.05% NP-40 with incubated in the dark for one hour at room temperature. Strepavidin coated polystyrene beads {40 μl of 0.1% (w/v)} are added and the plate is incubated in the dark for an additional half hour. The labeled cleavage product is separated from the unreacted substrate via filtration and is read on the Idexx screen machine. The data are analyzed by appropriate computer algorithms to ascertain percent inhibition values.

Where a name gives a salt, the structure may show the parent alone.

As for `CCC(c1cccc(NC(=O)CN)c1)c1c(O)c2ccccc2oc1=O` (centres unmarked) [Example 46, Coumarin, 3-[1-[3-[[(aminomethyl)carbonyl]amino]phenyl]propyl]4-hydroxy-, trifluoroacetate (salt)], it took 4200 nM to reach half-maximal inhibition (IC50), the inhibition at 1 µM turned out to be 22.1%, the inhibition at 10 µM turned out to be 96.3% and the inhibition at 100 µM came out at 116%. For the same compound, the “HIV-1 Protease % Inhib” value (dose 100.000 uM) is recorded as 107%.
Turning to `CCC(c1cccc(NC(=O)CC(C)(C)NC(=O)OC(C)(C)C)c1)c1c(O)c2ccccc2oc1=O` (centres unmarked) [Example 47, Coumarin, 4-hydroxy-3-[1-[3-[[1-oxo-3-methyl-3-[(1,1-dimethylethoxycarbonyl)amino]butyl]amino]phenyl]propyl]-], the inhibition at 1 µM is less than 10%, the inhibition at 10 µM is less than 10% and the inhibition at 100 µM worked out at 53%.
As to `CCC(c1cccc(NC(=O)CC(C)(C)N)c1)c1c(O)c2ccccc2oc1=O` (centres unmarked) [Example 48, Coumarin, 3-[1-[3-[(3-amino-3-methyl-1-oxobutyl)amino]phenyl]propyl]-4-hydroxy-, trifluoroacetate (salt)], the inhibition at 1 µM was less than 10%, the inhibition at 10 µM was less than 10% and the inhibition at 100 µM was 43.3%.
On to `CCC(CC(=O)Nc1cccc(C(CC)c2c(O)c3ccccc3oc2=O)c1)c1ccccc1` (centres unmarked) [Example 49, Coumarin, 4-hydroxy-3-[1-[3-[(1-oxo-3-phenylpentyl)amino]phenyl]propyl]-], for which the inhibition at 1 µM is less than 10%, the inhibition at 10 µM stood at 21.9% and the inhibition at 100 µM was found to be 60.3%.
In the case of `CCC(c1cccc(NC(=O)CCCNC(=O)OC(C)(C)C)c1)c1c(O)c2ccccc2oc1=O` (centres unmarked) [Example 50, Coumarin, 4-hydroxy-3-[1-[3-[[4-[(1,1-dimethylethoxycarbonyl)amino]-1-oxobutyl]amino]phenyl]propyl]-], the half-maximal inhibitory concentration (IC50) was determined as 2300 nM, the inhibition at 1 µM turned out to be 33.5%, the inhibition at 10 µM was found to be 80.3% and the inhibition at 100 µM was found to be 95.5%.
Turning to `CCC(c1cccc(NC(=O)CC[C@H](NC(=O)OC(C)(C)C)C(=O)OC(C)(C)C)c1)c1c(O)c2ccccc2oc1=O` (stereo partly drawn) [Example 51, L-Glutamine, N2-[(1,1-dimethylethoxy)carbonyl]-N-[3-[1-(4-hydroxy-2-oxo-2H-1-benzopyran-3-yl)propyl]phenyl]-, 1,1-dimethylethyl ester], the inhibition at 1 µM is less than 10%, the inhibition at 10 µM is less than 10% and the inhibition at 100 µM was 39.6%.
Regarding `CCC(c1cccc(NC(=O)CC[C@H](N)C(=O)O)c1)c1c(O)c2ccccc2oc1=O` (stereo partly drawn) [Example 52, L-Glutamine, N-[3-[1-(4-hydroxy-2-oxo-2H-1-benzopyran-3-yl)propyl]phenyl]-, mono(trifluoroacetate) (salt)], the IC50 was 3100 nM, the inhibition at 1 µM came to 26.8%, the inhibition at 10 µM was found to be 81.5% and the inhibition at 100 µM turned out to be 120%.
For the compound `CCC(c1cccc(NC(=O)CCCc2ccccc2)c1)c1c(O)c2ccccc2oc1=O` (centres unmarked) [Example 53, Coumarin, 4-hydroxy-3-[1-[3-[(i-oxo-4-phenylbutyl)amino]phenyl]propyl]-], the inhibition at 1 µM is less than 10%, the inhibition at 10 µM is less than 10% and the inhibition at 100 µM amounted to 71.8%.
As for `CCC(c1cccc(NC(=O)CCCCc2ccccc2)c1)c1c(O)c2ccccc2oc1=O` (centres unmarked) [Example 54, Coumarin, 4-hydroxy-3-[1-[3-[(1-oxo-5-phenylpentyl)amino]phenyl]propyl]-], the inhibition at 1 µM was less than 10%.
Consider `CCC(c1cccc(NC(=O)Cc2ccccc2)c1)c1c(O)c2ccccc2oc1=O` (centres unmarked) [Example 55, Coumarin, 4-hydroxy-3-[1-[3-[[(phenylmethyl)carbonyl]amino]phenyl]propyl]-], for which the inhibition at 1 µM was less than 10%, the inhibition at 10 µM is less than 10% and the inhibition at 100 µM turned out to be 72%.
With `CCC(c1cccc(NC(=O)CCC2CCCCC2)c1)c1c(O)c2ccccc2oc1=O` (centres unmarked) [Example 56, Coumarin, 3-[1-[3-[(3-cyclohexyl-1-oxopropyl)amino]phenyl]propyl]-4-hydroxy-], the inhibition at 1 µM was less than 10%, the inhibition at 10 µM was less than 10% and the inhibition at 100 µM is 49.5%.
Regarding `CCC(c1cccc(NC(=O)CCc2ccccc2)c1)c1c(O)c2ccc(OC)cc2oc1=O` (centres unmarked) [Example 57, Coumarin, 4-hydroxy-7-methoxy-3-[1-[3-[(1-oxo-3-phenylpropyl)amino]phenyl]propyl]-], the IC50 is 2800 nM, the inhibition at 1 µM is 17.6%, the inhibition at 10 µM was 94.4% and the inhibition at 100 µM came to 99.3%.
As for `CCC(c1cccc(NC(=O)CCNC(=O)OC(C)(C)C)c1)c1c(O)c2ccc(OC)cc2oc1=O` (centres unmarked) [Example 58, Coumarin, 4-hydroxy-3-[1-[3-[[3-[(1,1-dimethylethoxycarbonyl)amino]-1-oxopropyl]amino]phenyl]propyl]-7-methoxy-], the IC50 was determined as 1200 nM, the inhibition at 1 µM was determined as 36.3%, the inhibition at 10 µM is 90.2% and the inhibition at 100 µM was found to be 108%.
In the case of `CCC(c1cccc(NC(=O)C2CCCN2C(=O)OC(C)(C)C)c1)c1c(O)c2ccccc2oc1=O` (centres unmarked) [Example 59, 1-Pyrrolidinecarboxylic acid, 2-[[[3-[1-(4-hydroxy-2-oxo-2H-1-benzopyran-3-yl)propyl]phenyl]amino]carbonyl]-, 1,1-dimethylethyl ester], the inhibition at 1 µM is less than 10%, the inhibition at 10 µM came to 21.5% and the inhibition at 100 µM was 82.8%.
Consider `CCC(c1cccc(NC(=O)C(C)NC(=O)OC(C)(C)C)c1)c1c(O)c2ccccc2oc1=O` (centres unmarked) [Example 60, Carbamic acid, [2-[[3-[1-(4-hydroxy-2-oxo-2H-1-benzopyran-3-yl)propyl]phenyl]amino]-1-methyl-2-oxoethyl]-, 1,1-dimethylethyl ester], for which 1100 nM corresponded to half-maximal inhibition (IC50), the inhibition at 1 µM is 31.5%, the inhibition at 10 µM was 90.8% and the inhibition at 100 µM was 117%.
For `CCC(c1cccc(NC(=O)C(C)N)c1)c1c(O)c2ccccc2oc1=O` (centres unmarked) [Example 61, Propanamide, 2-amino-N-[3-[1-(4-hydroxy-2-oxo-2H-1-benzopyran-3-yl)propyl]phenyl]-, mono(trifluoroacetate) (salt)], inhibition was half-maximal at 1000 nM (IC50), the inhibition at 1 µM stood at 77.8%, the inhibition at 10 µM came to 115% and the inhibition at 100 µM is 119%.
Consider `CCC(c1cccc(NC(=O)CCc2ccc(O)cc2)c1)c1c(O)c2ccccc2oc1=O` (centres unmarked) [Example 62, Coumarin, 4-hydroxy-3-[1-[3-[[3-(4-hydroxyphenyl)-1-oxopropyl]amino]phenyl]propyl]-], for which the inhibition at 1 µM was less than 10%, the inhibition at 10 µM turned out to be 10.6% and the inhibition at 100 µM was found to be 78.3%.
Regarding `CCC(c1cccc(NC(=O)CCn2ccc3ccccc32)c1)c1c(O)c2ccccc2oc1=O` (centres unmarked) [Example 63, Coumarin, 4-hydroxy-3-[1-[3-[[3-(^1 H-indol-1-yl)-1-oxopropyl]amino]phenyl]propyl]-], the IC50 was determined as 2000 nM, the inhibition at 1 µM amounted to 77.6%, the inhibition at 10 µM was found to be 90.3% and the inhibition at 100 µM came out at 111%.
The corresponding values for `CCC(c1cccc(NC(=O)CCc2cccc3ccccc23)c1)c1c(O)c2ccccc2oc1=O` (centres unmarked) [Example 64, Coumarin, 4-hydroxy-3-[1-[3-[[3-(1-naphthyl)-1-oxopropyl]amino]phenyl]propyl]-] are 5800 nM, 29.1%, 78.1% and 104%.
In the case of `CCC(c1cccc(NC(=O)CCSc2nc3ccccc3s2)c1)c1c(O)c2ccccc2oc1=O` (centres unmarked) [Example 65, Coumarin, 3-[1-[3-[[3-[(2-benzothiazolyl)thio]-1-oxopropyl]amino]phenyl]propyl]4-hydroxy-], the inhibition at 1 µM is less than 10%, the inhibition at 10 µM stood at 48.4% and the inhibition at 100 µM came to 86.1%.
For the compound `CC(C)(C)OC(=O)CC(c1ccccc1)c1c(O)c2ccccc2oc1=O` (stereo not drawn) [Example 66, 4-hydroxy-3-[α-tert-butyloxycarbonylmethyl]benzylcoumarin], the inhibition at 1 µM was less than 10%, the inhibition at 10 µM is less than 10% and the inhibition at 100 µM worked out at 52.6%.
As to `C=CCOc1cccc(C(CC)c2c(O)c3ccccc3oc2=O)c1` (centres unmarked) [Example 67, 3-(1'-(3-Allyloxyphenyl)propyl)-4-hydroxycoumarin], the inhibition at 1 µM was less than 10%, the inhibition at 10 µM is 11.7% and the inhibition at 100 µM came to 60.9%.
Take `CCC(c1cccc(OCC(O)CO)c1)c1c(O)c2ccccc2oc1=O` (centres unmarked) [Example 68, 3-(1'-(3-((2,3-Dihydroxy)propyloxy)phenyl)propyl)-4-hydroxycoumarin]: the inhibition at 1 µM was less than 10%, the inhibition at 10 µM is less than 10% and the inhibition at 100 µM was 56%.
With `C=CCOc1ccccc1C(CC)c1c(O)c2ccccc2oc1=O` (centres unmarked) [Example 69, 3-(1'-(2-Allyloxyphenyl)propyl)-4-hydroxycoumarin], the inhibition at 1 µM is less than 10%, the inhibition at 10 µM worked out at 20.6% and the inhibition at 100 µM was found to be 92.2%.
For `CCC(c1ccccc1OC)c1c(O)c2ccccc2oc1=O` (centres unmarked) [Example 70, 3-(1'-(2-Methoxyphenyl)propyl)-4-hydroxycoumarin], the inhibition at 1 µM is less than 10%, the inhibition at 10 µM is 10.2% and the inhibition at 100 µM was determined as 72.2%.

The values above are taken from patent publication US5686486A, “4-hydroxy-benzopyran-2-ones and 4-hydroxy-cycloalkyl[b]pyran-2-ones useful to treat retroviral infections” (priority 1995, dated 1997).
